Bridge positions count the residues as written; N and C are the ends. Square brackets hold non-standard residues; d marks the D form. Peptide text beside a SMILES is read from it. Nle = CCCC[C@H](N)C(=O)O
Columns and labels:
Test in all cases: cell-based
[1] = target: T1, human Kv1.3 voltage-gated K+ channel (Homo sapiens, UniProt P22001); conditions: inhibition of thallium flux, CHO-DUKX cells with human Kv1.3; read-out: IC50
T1 construct: host or cells: CHO-DUKX

[2] = target: T2, Kv1.1 (Homo sapiens, UniProt Q09470); conditions: for IC50: CHO cells, whole-cell patch clamp, read-out: Potency IC50 (nM) Kv1.1; for Selectivity Kv1.1/Kv1.3: ratio IC50[Kv1.1]/IC50[Kv1.3]
T2 construct: expressed in transfected cells; host or cells: Chinese Hamster Ovary (CHO)

[3] = target: T3, Kv1.2 (Homo sapiens, UniProt P16389); conditions: CHO cells, whole-cell patch clamp; read-out: Potency IC50 (nM) Kv1.2
T3 construct: expressed in transfected cells; host or cells: Chinese Hamster Ovary (CHO)

[4] = target: T4, Kv1.3 (Homo sapiens, UniProt P22001); conditions: CHO cells, whole-cell patch clamp; read-out: Potency IC50 (nM) Kv1.3
T4 construct: expressed in transfected cells; host or cells: Chinese Hamster Ovary (CHO)

[5] = target: T5, Kv1.6 (Homo sapiens, UniProt P17658); conditions: for IC50: CHO cells, whole-cell patch clamp, read-out: Potency IC50 (nM) Kv1.6; for Selectivity Kv1.6/Kv1.3: ratio IC50[Kv1.6]/IC50[Kv1.3]
T5 construct: expressed in transfected cells; host or cells: Chinese Hamster Ovary (CHO)
T5 sequence (P17658 whole entry): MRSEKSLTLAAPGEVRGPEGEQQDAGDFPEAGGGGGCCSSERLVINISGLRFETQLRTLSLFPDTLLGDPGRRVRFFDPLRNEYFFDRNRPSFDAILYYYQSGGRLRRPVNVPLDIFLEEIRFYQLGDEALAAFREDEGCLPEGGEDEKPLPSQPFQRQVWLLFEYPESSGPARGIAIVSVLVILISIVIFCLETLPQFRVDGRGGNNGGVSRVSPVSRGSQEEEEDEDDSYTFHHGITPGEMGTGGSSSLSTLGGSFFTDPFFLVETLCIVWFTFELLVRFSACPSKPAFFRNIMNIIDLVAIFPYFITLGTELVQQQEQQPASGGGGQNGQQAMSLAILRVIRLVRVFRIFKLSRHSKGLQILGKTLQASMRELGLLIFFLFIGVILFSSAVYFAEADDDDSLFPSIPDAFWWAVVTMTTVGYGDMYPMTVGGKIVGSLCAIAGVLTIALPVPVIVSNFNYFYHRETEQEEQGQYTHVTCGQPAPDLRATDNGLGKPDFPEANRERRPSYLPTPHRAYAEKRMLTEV

T2 sequence (Q09470 whole entry): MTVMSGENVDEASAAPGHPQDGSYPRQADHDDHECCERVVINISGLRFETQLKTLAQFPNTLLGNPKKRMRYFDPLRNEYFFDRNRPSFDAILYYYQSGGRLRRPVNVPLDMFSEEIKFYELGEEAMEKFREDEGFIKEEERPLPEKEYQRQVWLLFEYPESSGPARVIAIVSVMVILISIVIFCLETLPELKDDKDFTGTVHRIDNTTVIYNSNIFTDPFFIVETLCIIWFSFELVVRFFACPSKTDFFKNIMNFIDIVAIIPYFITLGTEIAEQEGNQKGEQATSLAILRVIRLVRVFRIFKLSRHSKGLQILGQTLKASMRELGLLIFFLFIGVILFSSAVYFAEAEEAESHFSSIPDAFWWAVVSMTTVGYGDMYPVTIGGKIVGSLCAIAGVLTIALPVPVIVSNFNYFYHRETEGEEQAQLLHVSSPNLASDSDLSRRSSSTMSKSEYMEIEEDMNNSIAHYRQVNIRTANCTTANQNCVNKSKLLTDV
T4 sequence (P22001 whole entry): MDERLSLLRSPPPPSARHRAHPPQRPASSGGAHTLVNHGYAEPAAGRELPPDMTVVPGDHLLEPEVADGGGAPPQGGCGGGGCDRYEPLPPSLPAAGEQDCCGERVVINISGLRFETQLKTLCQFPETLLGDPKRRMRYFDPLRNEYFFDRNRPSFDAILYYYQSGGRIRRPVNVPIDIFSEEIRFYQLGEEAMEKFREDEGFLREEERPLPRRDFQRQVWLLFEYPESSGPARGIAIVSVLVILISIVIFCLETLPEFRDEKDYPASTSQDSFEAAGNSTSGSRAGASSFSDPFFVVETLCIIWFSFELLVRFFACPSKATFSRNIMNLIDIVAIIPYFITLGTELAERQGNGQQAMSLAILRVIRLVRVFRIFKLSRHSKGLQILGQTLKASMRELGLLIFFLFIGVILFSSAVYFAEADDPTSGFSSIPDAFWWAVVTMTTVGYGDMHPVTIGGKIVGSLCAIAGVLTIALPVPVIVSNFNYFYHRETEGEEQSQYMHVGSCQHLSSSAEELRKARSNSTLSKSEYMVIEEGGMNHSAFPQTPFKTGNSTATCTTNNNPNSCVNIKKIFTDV
T1 sequence (P22001 whole entry): as above
T3 sequence (P16389 whole entry): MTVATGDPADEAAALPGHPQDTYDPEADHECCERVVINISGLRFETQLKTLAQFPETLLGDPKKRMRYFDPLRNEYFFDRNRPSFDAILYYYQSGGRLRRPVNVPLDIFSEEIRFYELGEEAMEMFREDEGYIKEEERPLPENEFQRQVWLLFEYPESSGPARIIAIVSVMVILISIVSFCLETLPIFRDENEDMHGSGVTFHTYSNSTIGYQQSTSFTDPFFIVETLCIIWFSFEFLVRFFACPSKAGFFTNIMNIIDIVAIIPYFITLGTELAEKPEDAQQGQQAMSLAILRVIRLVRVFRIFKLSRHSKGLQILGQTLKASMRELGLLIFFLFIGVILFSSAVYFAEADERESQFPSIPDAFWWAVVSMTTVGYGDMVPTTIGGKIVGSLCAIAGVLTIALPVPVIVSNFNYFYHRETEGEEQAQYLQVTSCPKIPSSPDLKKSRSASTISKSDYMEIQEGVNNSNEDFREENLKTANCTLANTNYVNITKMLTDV

Compound | IC50 [1] [nM] | IC50 [2] [nM] | Selectivity Kv1.1/Kv1.3 [2] | IC50 [3] [nM] | IC50 [4] [nM] | IC50 [5] [nM] | Selectivity Kv1.6/Kv1.3 [5]
CC[C@H](C)[C@@H]1NC(=O)[C@H](C)NC(=O)[C@H](CCCCN)NC(=O)[C@H](CC(C)C)NC(=O)[C@@H]2CSSC[C@@H](C(=O)N[C@@H](Cc3ccc(O)cc3)C(=O)N3CCC[C@H]3C(=O)N[C@@H](CCCNC(=N)N)C(=O)O)NC(=O)[C@H](CCCCN)NC(=O)[C@@H]3CSSC[C@H](NC(=O)[C@H](CCC(=O)O)NC(=O)[C@H](C(C)C)NC(=O)[C@H](CO)NC(=O)[C@H](C)NC(=O)[C@H](CO)NC(=O)[C@@H](NC(=O)[C@H](CCCNC(=N)N)NC(=O)[C@H](CCSC)NC(=O)[C@H](CCC(=O)O)NC(=O)[C@H](CCSC)NC(=O)[C@@H](N)CC(N)=O)CSSC[C@H](NC(=O)[C@H](CCCCN)NC(=O)CNC(=O)[C@H](Cc4ccccc4)NC(=O)[C@H]([C@@H](C)CC)NC(=O)[C@H](CO)NC(=O)CNC1=O)C(=O)N[C@@H](CCSC)C(=O)N[C@@H](CC(N)=O)C(=O)N[C@@H](CCCCN)C(=O)N[C@@H](CCCCN)C(=O)N3)C(=O)N[C@@H](CCCCN)C(=O)N[C@@H](CCC(N)=O)C(=O)N[C@@H](CCCCN)C(=O)N2 [Compound 12] (H-NMEMRCSASVECKQKCLKAIGSIFGKCMNKKCKCYPR-OH; disulfide 6-27, 12-32, 16-34) | 0.23 | > 3000 | >27600 | 228 | 0.11 | > 3000 | >27600
CC[C@H](C)[C@@H]1NC(=O)[C@H](C)NC(=O)[C@H](CCCCN)NC(=O)[C@H](CC(C)C)NC(=O)[C@@H]2CSSC[C@@H](C(=O)N[C@@H](Cc3ccc(O)cc3)C(=O)N3CCC[C@H]3C(=O)N[C@@H](CCCNC(=N)N)C(N)=O)NC(=O)[C@H](CCCCN)NC(=O)[C@@H]3CSSC[C@H](NC(=O)[C@H](CCC(=O)O)NC(=O)[C@H](C(C)C)NC(=O)[C@H](CO)NC(=O)[C@H](C)NC(=O)[C@H](CO)NC(=O)[C@@H](NC(=O)[C@H](CCCNC(=N)N)NC(=O)[C@H](CCSC)NC(=O)[C@H](CC(=O)O)NC(=O)[C@H](CCSC)NC(=O)[C@@H](N)CC(N)=O)CSSC[C@H](NC(=O)[C@H](CCCCN)NC(=O)CNC(=O)[C@H](Cc4ccccc4)NC(=O)[C@H]([C@@H](C)CC)NC(=O)[C@H](CO)NC(=O)CNC1=O)C(=O)N[C@@H](CCSC)C(=O)N[C@@H](CC(N)=O)C(=O)N[C@@H](CCCCN)C(=O)N[C@@H](CCCCN)C(=O)N3)C(=O)N[C@@H](CCCCN)C(=O)N[C@@H](CCC(N)=O)C(=O)N[C@@H](CC(C)C)C(=O)N2 [Compound 18] (H-NMDMRCSASVECKQLCLKAIGSIFGKCMNKKCKCYPR-NH2; disulfide 6-27, 12-32, 16-34) | 0.19 | > 3000 | >12700 | 256 | 0.24 | > 3000 | >12700
CC[C@H](C)[C@@H]1NC(=O)[C@H](C)NC(=O)[C@H](CCCCN)NC(=O)[C@H](CC(C)C)NC(=O)[C@@H]2CSSC[C@@H](C(=O)N[C@@H](Cc3ccc(O)cc3)C(=O)N3CCC[C@H]3C(=O)N[C@@H](CCCNC(=N)N)C(N)=O)NC(=O)[C@H](CCCCN)NC(=O)[C@@H]3CSSC[C@H](NC(=O)[C@H](CCC(=O)O)NC(=O)[C@H](C(C)C)NC(=O)[C@H](CO)NC(=O)[C@H](C)NC(=O)[C@H](CO)NC(=O)[C@@H](NC(=O)[C@H](CCCNC(=N)N)NC(=O)[C@H](CCSC)NC(=O)[C@H](CC(=O)O)NC(=O)[C@H](CCSC)NC(=O)[C@@H](N)CC(N)=O)CSSC[C@H](NC(=O)[C@H](CCCCN)NC(=O)CNC(=O)[C@H](Cc4ccccc4)NC(=O)[C@H]([C@@H](C)CC)NC(=O)[C@H](CO)NC(=O)[C@H](CCC(=O)O)NC1=O)C(=O)N[C@@H](CCSC)C(=O)N[C@@H](CC(N)=O)C(=O)N[C@@H](CCCCN)C(=O)N[C@@H](CCCCN)C(=O)N3)C(=O)N[C@@H](CCCCN)C(=O)N[C@@H](CCC(N)=O)C(=O)N[C@@H](CCCCN)C(=O)N2 [Compound 22] (H-NMDMRCSASVECKQKCLKAIESIFGKCMNKKCKCYPR-NH2; disulfide 6-27, 12-32, 16-34) | 0.11 | > 3000 | >10200 | 181 | 0.29 | > 3000 | >10200
CC[C@H](C)[C@@H]1NC(=O)[C@H](C)NC(=O)[C@H](CCCCN)NC(=O)[C@H](CC(C)C)NC(=O)[C@@H]2CSSC[C@@H](C(=O)N[C@@H](Cc3ccc(O)cc3)C(=O)N3CCC[C@H]3C(=O)N[C@@H](CCCNC(=N)N)C(N)=O)NC(=O)[C@H](CCCCN)NC(=O)[C@@H]3CSSC[C@H](NC(=O)[C@H](CCC(=O)O)NC(=O)[C@H](C(C)C)NC(=O)[C@H](CO)NC(=O)[C@H](C)NC(=O)[C@H](CCCCN)NC(=O)[C@@H](NC(=O)[C@H](CCCNC(=N)N)NC(=O)[C@H](CCSC)NC(=O)[C@H](CC(=O)O)NC(=O)[C@H](CCSC)NC(=O)[C@@H](N)CC(N)=O)CSSC[C@H](NC(=O)[C@H](CCCCN)NC(=O)CNC(=O)[C@H](Cc4ccccc4)NC(=O)[C@H]([C@@H](C)CC)NC(=O)[C@H](CO)NC(=O)CNC1=O)C(=O)N[C@@H](CCSC)C(=O)N[C@@H](CC(N)=O)C(=O)N[C@@H](CCCCN)C(=O)N[C@@H](CCCCN)C(=O)N3)C(=O)N[C@@H](CCCCN)C(=O)N[C@@H](CCC(N)=O)C(=O)N[C@@H](CCCCN)C(=O)N2 [Compound 25] (H-NMDMRCKASVECKQKCLKAIGSIFGKCMNKKCKCYPR-NH2; disulfide 6-27, 12-32, 16-34) | 0.085 | > 3000 | >34200 | 67 | 0.09 | 363 | 
CC[C@H](C)[C@@H]1NC(=O)[C@H](C)NC(=O)[C@H](CCCCN)NC(=O)[C@H](CC(C)C)NC(=O)[C@@H]2CSSC[C@@H](C(=O)N[C@@H](Cc3ccc(O)cc3)C(=O)N3CCC[C@H]3C(=O)N[C@@H](CCCNC(=N)N)C(N)=O)NC(=O)[C@H](CCCCN)NC(=O)[C@@H]3CSSC[C@H](NC(=O)[C@H](CCC(=O)O)NC(=O)[C@H](C(C)C)NC(=O)[C@H](CO)NC(=O)[C@H](C)NC(=O)[C@H](CO)NC(=O)[C@@H](NC(=O)[C@H](CCCNC(=N)N)NC(=O)[C@H](CCSC)NC(=O)[C@H](CC(=O)O)NC(=O)[C@H](CCSC)NC(=O)[C@@H](N)CC(N)=O)CSSC[C@H](NC(=O)[C@H](CCCCN)NC(=O)CNC(=O)[C@H](Cc4ccccc4)NC(=O)[C@H](CCCCN)NC(=O)[C@H](CO)NC(=O)CNC1=O)C(=O)N[C@@H](CCSC)C(=O)N[C@@H](CC(N)=O)C(=O)N[C@@H](CCCCN)C(=O)N[C@@H](CCCCN)C(=O)N3)C(=O)N[C@@H](CCCCN)C(=O)N[C@@H](CCC(N)=O)C(=O)N[C@@H](CCCCN)C(=O)N2 [Compound 34] (H-NMDMRCSASVECKQKCLKAIGSKFGKCMNKKCKCYPR-NH2; disulfide 6-27, 12-32, 16-34) | 0.11 | > 3000 | >7100 | 100 | 0.42 | 207 | 
CC[C@H](C)[C@@H]1NC(=O)[C@H](C)NC(=O)[C@H](CCCCN)NC(=O)[C@H](CC(C)C)NC(=O)[C@@H]2CSSC[C@@H](C(=O)N[C@@H](Cc3ccc(O)cc3)C(=O)N3CCC[C@H]3C(=O)N[C@@H](CCCNC(=N)N)C(N)=O)NC(=O)[C@H](CCCCN)NC(=O)[C@@H]3CSSC[C@H](NC(=O)[C@H](CCC(=O)O)NC(=O)[C@H](C(C)C)NC(=O)[C@H](CO)NC(=O)[C@H](C)NC(=O)[C@H](CO)NC(=O)[C@@H](NC(=O)[C@H](CCCNC(=N)N)NC(=O)[C@H](CCSC)NC(=O)[C@H](CC(=O)O)NC(=O)[C@H](CCSC)NC(=O)[C@@H](N)CC(N)=O)CSSC[C@H](NC(=O)[C@H](CCCCN)NC(=O)CNC(=O)[C@H](Cc4ccccc4)NC(=O)[C@H]([C@@H](C)CC)NC(=O)[C@H](CO)NC(=O)CNC1=O)C(=O)N[C@@H](CCSC)C(=O)N[C@@H](CC(N)=O)C(=O)NCC(=O)N[C@@H](CCCCN)C(=O)N3)C(=O)N[C@@H](CCCCN)C(=O)N[C@@H](CCC(N)=O)C(=O)N[C@@H](CCCCN)C(=O)N2 [Compound 36] (H-NMDMRCSASVECKQKCLKAIGSIFGKCMNGKCKCYPR-NH2; disulfide 6-27, 12-32, 16-34) | 0.24 | > 3000 | >9700 | 439 | 0.31 | > 3000 | >9700
CCCC[C@@H]1NC(=O)[C@@H]2CSSC[C@H](NC(=O)[C@H](CCCNC(=N)N)NC(=O)[C@H](CCCC)NC(=O)[C@H](CC(=O)O)NC(=O)[C@H](CCCC)NC(=O)[C@@H](N)CC(N)=O)C(=O)N[C@@H](CO)C(=O)N[C@@H](C)C(=O)N[C@@H](CO)C(=O)N[C@@H](C(C)C)C(=O)N[C@@H](CCC(=O)O)C(=O)N[C@H]3CSSC[C@H](NC(=O)[C@H](CCCCN)NC(=O)[C@H](CCCCN)NC(=O)[C@H](CC(N)=O)NC1=O)C(=O)N[C@@H](CCCCN)C(=O)N[C@H](C(=O)N[C@@H](Cc1ccc(O)cc1)C(=O)N1CCC[C@H]1C(=O)N[C@@H](CCCNC(=N)N)C(N)=O)CSSC[C@H](NC(=O)[C@H](CCCCN)NC(=O)[C@H](CCC(N)=O)NC(=O)[C@H](CCCCN)NC3=O)C(=O)N[C@@H](CC(C)C)C(=O)N[C@@H](CCCCN)C(=O)N[C@@H](C)C(=O)N[C@@H]([C@@H](C)CC)C(=O)NCC(=O)N[C@@H](CO)C(=O)N[C@@H]([C@@H](C)CC)C(=O)N[C@@H](Cc1ccccc1)C(=O)NCC(=O)N[C@@H](CCCCN)C(=O)N2 [Compound 40] (H-N[Nle]D[Nle]RCSASVECKQKCLKAIGSIFGKC[Nle]NKKCKCYPR-NH2; disulfide 6-27, 12-32, 16-34) | 0.1 | > 3000 | >11600 | 113 | 0.26 | 1830 | 
